Columns and labels:
TNFα = test: Bioassay of TNFα production by LPS activated RAW 264.7 macrophages using L929 cell line; format: cell-based; settings: Mus musculus; L929 + ActD + supernatant from LPS + compound (10 μM) treated RAW 264.7 macrophage; crystal violet; mean ± S.D. of triplicate; read-out: PERCENTAGE CELL SURVIVAL ± S.D.
Description: Measurement of TNFα in culture medium or supernatant is performed using immunoassay and bioassay. Bioassay was used for the measurement of bioactive TNFα production in the culture medium.
TNFα secretion into the medium by LPS activated macrophage was assayed using L929 tumorigenic murine cells (ATCC) specifically sensitive to TNFα. L929 cell cytotoxicity assay was performed by a modified method (Sano et al., The Journal of Immunology, 1999, 163: 387-395 The Journal of Immunology, 1999, 163: 387-395) based on that described elsewhere (Flick D A, Gifford G E. J Immunol Methods. 1984 Mar. 30; 68(1-2): 167-175). Briefly, the L929 cells (log phase cells) were seeded into a flat bottom 96 well plates (6×10^4/well) in 100 μl volume of RPMI 1640 containing 2% FCS and incubated overnight at 37° C. in a 5% CO2 incubator. A working dilution of the culture supernatant collected from LPS (200 ng/ml) activated macrophage in a volume of 100 μl per well was first tested to obtain 70-75% cytotoxicity equivalent to […] of recombinant TNFα standard to the TNFα sensitive L929 cell line. After incubation of the L929 cells appropriate fixed dilution of the culture supernatant collected from the compound treated (10 μM) wells, containing the LPS stimulated macrophages in a volume of 100 μl with 2 μg/ml Actinomycin D (Act D) was taken and added to the L929 cells and the cells were incubated at room temperature for 15 min followed by 18 h incubation at 37° C. overnight with 5% CO2. On the next day the medium was removed and the cells were stained with 0.2% (w/v) crystal violet for 10 minutes. The wells were gently rinsed with water, and 33% acetic acid (100 μl/well) was added to extract the retained crystal violet. The absorbance at 570 nm was finally measured.
Tumor necrosis factor-α can cause direct cytotoxicity to the lung fibroblast cell line (L929). Bioassay of TNF α is designated on the basis of this cytotoxicity of TNF α, which can be used for the identification of murine TNF α activity in tissue culture supernatants. Culture supernatant collected from the synthetic molecules treated well containing LPS stimulated macrophage modulated the extent of cytotoxicity to the L929 cells (see Table 1).

RAW 264.7 cells = test: Nitrite quantification (Griess) in LPS stimulated macrophages; format: cell-based, mouse; settings: RAW 264.7 + LPS (200 ng/ml) + 10 μM compound, 24 h; LPS + DMSO control 14.560, basal 0.782
Description: NO2^− accumulation was used as an indicator of Nitric Oxide (NO) production in the medium as described previously (Green et al., 1982 Anal Biochem 126, 131-138). […] The isolated supernatants were mixed with an equal volume of Griess reagent (1% sulfanilamide, 0.1% naphthylenediamine dihydrochloride, and 2% phosphoric acid) and incubated at room temperature for 15 min. NaNO2 was used to generate a standard curve, and nitrite production was determined by measuring the optical density at 540 nm.
To estimate the anti-inflammatory effects of all the synthetic molecules listed in this study, we measured the accumulation of nitrite, the stable metabolite of NO, in the culture media using Griess reagent.
To investigate the effect of CAMVE on NO production, we measured the accumulation of nitrite, the stable metabolite of NO, in the culture media using Griess reagent. To investigate the effect of CAMVE on NO production, Raw 264.7 cells, pretreated with indicated concentrations of CAMVE for 1 h were incubated with LPS (250 ng/ml) for 24 h.

Compound	viability at 10 µM (TNFα) [%]	CONCENTRATION OF NITRITE μM ± SD (RAW 264.7 cells) [µM]
C/C=C/c1cc(OC)c2c(c1)[C@@H](C)[C@H](c1ccc(OC(=O)/C=C/c3ccc(O)c(O)c3)c(OC)c1)O2 (racemic) [compound 5, (±)-2β-[4-O-(3,4,-dihydroxycinnamoyl)-3-methoxyphenyl]-3α-methyl-7-methoxy-5-[(E)-1-propenyl]-2,3 dihydrobenzofuran]	67.8 ± 0.866	3.449 ± 0.315
C/C=C/c1cc(OC)c2c(c1)[C@@H](C)[C@H](c1ccc(OC(=O)c3ccc(O)c(OC)c3)c(OC)c1)O2 (racemic) [compound 16, (±)-2β-[4-O-(3-methoxy-4-hydroxybenzoyl)-3-methoxyphenyl]-3α-methyl-7-methoxy-5-[(E)-1-propenyl]-2,3-dihydrobenzofuran]	49 ± 1.99	8.449 ± 0.234
C/C=C/c1cc(OC)c2c(c1)[C@@H](C)[C@H](c1ccc(OC(=O)/C=C/c3ccc(O)c(OC)c3)c(OC)c1)O2 (racemic) [compound 25, (±)-2β-[4-O-(3-methoxy-4-hydroxycinnamoyl)-3-methoxyphenyl]-3α-methyl-7-methoxy-5-[(E)-1-propenyl]-2,3-dihydrobenzofuran]	53.7 ± 2.05	7.871 ± 0.168
C/C=C/c1cc(OC)c2c(c1)[C@@H](C)[C@H](c1ccc(OC(=O)/C=C/c3ccc(O)cc3)c(OC)c1)O2 (racemic) [compound 29, (±)-2β-[4-O-(4-hydroxycinnamoyl)-3-methoxyphenyl]-3α-methyl-7-methoxy-5-[(E)-1-propenyl]-2,3-dihydrobenzofuran]	50.6 ± 1.49	8.382 ± 0.454
COC(=O)/C=C/c1ccc(OC(=O)/C=C/c2ccc(O)c(O)c2)c(OC)c1 [compound 2, 2-methoxy-4-[(1E)-3-methoxy-3-oxoprop-1-en-1-yl]phenyl (2E)-3-(3,4 dihydroxyphenyl)acrylate]	68	2.404 ± 0.168
COC(=O)c1ccccc1OC(=O)/C=C/c1ccc(O)c(O)c1 [compound 3, Methyl 2-{[(2E)-3-(3,4-dihydroxyphenyl)prop-2-enoyl]oxy}benzoate]	67 ± 2.3	3.022 ± 0.300
C=CCc1ccc(OC(=O)/C=C/c2ccc(O)c(O)c2)c(OC)c1 [compound 4, 4-allyl-2-methoxyphenyl (2E)-3-(3,4-dihydroxyphenyl)acrylate]	69.1 ± 1.49	3.093 ± 0.437
COC(=O)/C=C/c1cc(OC)c2c(c1)[C@@H](C(=O)OC)[C@H](c1ccc(OC(=O)/C=C/c3ccc(O)c(O)c3)c(OC)c1)O2 [compound 6, Methyl (E)-3-[2β-{4-O-(3,4-dihydroxycinnamoyl)-3-methoxyphenyl}-7-methoxy-3α-methoxycarbonyl-2,3-dihydro-1-benzofuran-5-yl]prop-2-enoate]	66.6 ± 1.49	3.204 ± 0.168
C/C=C/c1ccc(OC(=O)/C=C/c2ccc(O)c(O)c2)c(OC)c1 [compound 7, 2-methoxy-4-[(1E)-prop-1-en-1-yl]phenyl(2E)-3-(3,4-dihydroxyphenyl)acrylate]	65.3 ± 1.11	3.760 ± 0.546
COc1cc(C=O)ccc1OC(=O)/C=C/c1ccc(O)c(O)c1 [compound 8, 4-formyl-2-methoxyphenyl (2E)-3-(3,4-dihydroxyphenyl)acrylate]	67.8 ± 1.25	3.893 ± 0.133
COC(=O)c1ccccc1OC(=O)c1ccc(O)c(OC)c1 [compound 9, 2-(Methoxycarbonyl)phenyl 4-hydroxy-3-methoxybenzoate]	51.1 ± 2.77	7.582 ± 0.868
COC(=O)c1ccc(OC(=O)c2ccc(O)c(OC)c2)c(OC)c1 [compound 10, 2-methoxy-4-(methoxycarbonyl)phenyl 4-hydroxy-3-methoxy benzoate]	51.6 ± 1.4	6.849 ± 0.806
COC(=O)/C=C/c1ccc(OC(=O)c2ccc(O)c(OC)c2)c(OC)c1 [compound 11, 2-methoxy-4-[(1E)-3-methoxy-3-oxoprop-1-en-1yl]phenyl 4-hydroxy-3-methoxybenzoate]	52.4 ± 1.51	5.604 ± 0.668
COC(=O)/C=C/c1cc(OC)c2c(c1)[C@@H](C(=O)OC)[C@H](c1ccc(OC(=O)c3ccc(O)c(OC)c3)c(OC)c1)O2 [compound 12, Methyl(E)-3-[2β-{4-O-(3-methoxy-4-hydroxyphenylcarbonyl)-3-methoxyphenyl}-7-methoxy-3α-methoxycarbonyl-2,3-dihydro-1-benzofuran-5-yl]prop-2-enoate]	51.3 ± 1.21	9.582 ± 0.482
C=CCc1ccc(OC(=O)c2ccc(O)c(OC)c2)c(OC)c1 [compound 13, 4-allyl-2-methoxyphenyl 4-hydroxy-3-methoxybenzoate]	50.6 ± 1.6	8.004 ± 0.379
C/C=C/c1ccc(OC(=O)c2ccc(O)c(OC)c2)c(OC)c1 [compound 14, 2-Methoxy-4-[(1E)-prop-1en-1-yl]phenyl4-hydroxy-3-methoxy benzoate]	51 ± 1.91	8.382 ± 0.278
COc1cc(C(=O)Oc2ccc(C=O)cc2OC)ccc1O [compound 15, 4-formyl-2-methoxyphenyl 4-hydroxy-3-methoxybenozoate]	50.9 ± 1.84	8.271 ± 0.342
COC(=O)c1ccc(OC(=O)/C=C/c2ccc(O)cc2)c(OC)c1 [compound 17, methyl 4-{[(2E)-3-(4-hydroxyphenyl)prop-2-enoyl]oxy}-3-methoxy benzoate]	51.9 ± 1.43	8.404 ± 0.315
COC(=O)/C=C/c1ccc(OC(=O)/C=C/c2ccc(O)cc2)c(OC)c1 [compound 18, 2-methoxy-4-[(1E)-3-methoxy-3-oxoprop-1-en-1-yl]phenyl (2E)-3-(4-hydroxyphenyl)acrylate]	50.4 ± 1.57	7.960 ± 0.437
COc1cc(C=O)ccc1OC(=O)/C=C/c1ccc(O)cc1 [compound 19, 4-formyl-2-methoxyphenyl (2E)-3-(4-hydroxyphenyl)acrylate]	51.6 ± 1.57	8.227 ± 0.115
COC(=O)c1ccccc1OC(=O)/C=C/c1ccc(O)cc1 [compound 20, methyl 2-{[(2E)-3-(4-hydroxyphenyl)prop-2-enoyl]oxy}benzoate]	51.9	8.493 ± 0.267
C=CCc1ccc(OC(=O)/C=C/c2ccc(O)cc2)c(OC)c1 [compound 21, 4-allyl-2-methoxyphenyl (2E)-3-(4-hydroxyophenyl)acrylate]	52.3 ± 1.25	8.293 ± 0.371
COC(=O)/C=C/c1ccc(OC(=O)/C=C/c2ccc(O)cc2)c(OC(=O)/C=C/c2ccc(O)cc2)c1 [compound 22, methyl [3,4-bis O-(4-hydroxyphenylacryloyl)]phenylacrylate]	65.6 ± 1.33	3.982 ± 0.301
C/C=C/c1ccc(OC(=O)/C=C/c2ccc(O)cc2)c(OC)c1 [compound 23, 2-methoxy-4-[(1E)-prop-1-en-1-yl]phenyl (2E)-3-(4-hydroxyphenyl)acrylate]	51.2 ± 1.55	8.338 ± 0.204
COC(=O)/C=C/c1cc(OC)c2c(c1)[C@@H](C(=O)OC)[C@H](c1ccc(OC(=O)/C=C/c3ccc(O)cc3)c(OC)c1)O2 [compound 24]	50.3 ± 1.28	8.582 ± 0.214
